In patent EP1115421B1, “USE OF GLP-1 OR ANALOGS IN TREATMENT OF STROKE” (ELI LILLY AND COMPANY, priority 1998, dated 2009):
Where no end group is shown, it is not given here.

Key:
[1] = test system: patients having non-insulin dependent diabetes (NIDDM); test: Overnight subcutaneous infusion in NIDDM patients, blood glucose (Example 1); assay type: in vivo
NIDDM patients = test: Infusion during meals in NIDDM patients, blood glucose (Example 2); assay type: in vivo; conditions: while infused, three hours during breakfast, lunch and dinner; compared with insulin injection; five NIDDM patients

GLP-1(7-36) amide (HAEGTFTSDVSSYLEGQAAKEFIAWLVKGR-NH2; UniProt P01275 98-127, looked up, fragment) [truncated glucagon-like peptide 1, C-terminal amide]
metabolic control ([1]; compared with continuous insulin infusion, average blood glucose significantly lower at 23:00, 0:00 and 1:00): better than that achieved by insulin | effect on blood glucose ([1]; subcutaneous infusion 1.2 pmol/kg/hr, ten hours during the night, five NIDDM patients): nearly normalized blood glucose | post-prandial glucose excursions (NIDDM patients): eliminated
